Data published in article PMC11312813, “An Optimized Peptide Antagonist of CXCR4 Limits Survival of BCR–ABL1-Transformed Cells in Philadelphia-Chromosome-Positive B-Cell Acute Lymphoblastic Leukemia” (International Journal of Molecular Sciences, 2024).
Counter-ions that a name gives are not always drawn.

Experiments:
[1] = system: BCR–ABL1-transformed mouse B cells; experiment: Cell proliferation assay (cell trace dye dilution); type: cell-based; conditions: 10 µM, 48 and 72 h; n = 3
Method: BCR–ABL1 cells were collected at 0.5 × 10^5 cells/well of a 96-well plate and labeled with cell trace far red cell proliferation dye (#C34564, Invitrogen, Dreieich, Germany), according to the manufacturer’s instructions. Labeled cells were plated in 100 μL of complete media and were mixed with equal volume of 2X DMSO or inhibitor-containing media. A small part of the labeled cells was measured in FACS to determine the fluorescence signal on day 0. After specific time periods (48 and 72 h), cells were collected, washed with FACS buffer, and analyzed using LSR-Fortessa (BD Bioscience).

[2] = system: WT mouse BM-derived B cells; experiment: Real-time cell growth, normal WT mouse BM-derived B cells; type: cell-based; conditions: 10 µM JM#170, 10 µM AMD3100, 1 µM Imatinib; 96 h; n = 2
Method: (§1) The cells were plated in 100 μL complete medium.

[3] = system: ERK1/2 phosphorylation downstream of CXCR4; experiment: Western blot, ERK1/2 T202/Y204 phosphorylation in BCR–ABL1 cells; type: cell-based; conditions: 10 µM, 100 ng/mL mouse CXCL12, 5 min; n = 3
Method: BCR–ABL1 cells were collected as 5 × 10^6 cells/500 μL complete media and treated either with DMSO or different inhibitors in the absence and presence of 100 ng/mL mouse CXCL12 for 5, 15, and 30 min at 37 °C. Cells were then immediately transferred onto ice to stop the reaction and washed with ice-cold PBS. Cell extract was prepared by resuspending the cell pellet in 100 μL of radio-immunoprecipitation assay (RIPA) buffer supplemented with 1X protease inhibitor cocktail (#78429, Thermo Fisher), 1 mM sodium orthovanadate (Sigma-Aldrich), and 10 mM beta-glycerophosphate (Sigma-Aldrich). For each treatment, 15 μL of cell extract was mixed with 5 μL of 4X Laemmli buffer (reducing), boiled at 95 °C for 10 min, and run on 10% SDS-PAGE. Gels were wet-transferred to PVDF membranes (Millipore, Burlington, MA, USA) and stained with 0.1% ponceau-S solution to check for efficient blotting. The membranes were blocked with 3% BSA solution and incubated with primary antibodies at 4 °C overnight. The next day, primary antibodies were washed, and membranes were probed with horseradish peroxidase (HRP)-conjugated secondary antibodies at RT for 2 h. After washing, the blots were developed using Immobilon ECL Ultra Western HRP Substrate (#WBULS0500, Millipore), and images were acquired with a Fusion SL gel imaging system (Vilber Lourmat, Eberhardzell, Germany). […]

[4] = system: JNK1/2 phosphorylation; experiment: Western blot, basal JNK1/2 phosphorylation in BCR–ABL1 cells; type: cell-based, mouse; conditions: 10 µM, no CXCL12, 5 min; n = 3
Method: BCR–ABL1 cells were collected as 5 × 10^6 cells/500 μL complete media and treated either with DMSO or different inhibitors in the absence and presence of 100 ng/mL mouse CXCL12 for 5, 15, and 30 min at 37 °C. Cells were then immediately transferred onto ice to stop the reaction and washed with ice-cold PBS. […] For each treatment, 15 μL of cell extract was mixed with 5 μL of 4X Laemmli buffer (reducing), boiled at 95 °C for 10 min, and run on 10% SDS-PAGE. Gels were wet-transferred to PVDF membranes (Millipore, Burlington, MA, USA) and stained with 0.1% ponceau-S solution to check for efficient blotting. The membranes were blocked with 3% BSA solution and incubated with primary antibodies at 4 °C overnight. The next day, primary antibodies were washed, and membranes were probed with horseradish peroxidase (HRP)-conjugated secondary antibodies at RT for 2 h. After washing, the blots were developed using Immobilon ECL Ultra Western HRP Substrate (#WBULS0500, Millipore), and images were acquired with a Fusion SL gel imaging system (Vilber Lourmat, Eberhardzell, Germany).

[5] = system: 697 cells; experiment: Flow cytometric cell survival analysis, 697; type: cell-based, human; conditions: 10 µM; n = 3
Method: Cells treated with either solvent control DMSO or different concentrations of inhibitors for different time points were collected and washed with ice-cold PBS. Cells were then stained with efluor 450-labeled fixable viability dye (FVD, #65-0863-14, eBioscience, San Diego, CA, USA) at 1:1000 dilution at 4 °C or using 50 μg/mL propidium iodide (PI, #P3566, Thermo Fisher, Dreieich, Germany) solution at RT for 15 min in the dark. After washing, labeled cells were resuspended in 100 μL of PBS and acquired using LSR-Fortessa (BD Bioscience, Heidelberg, Germany). FACS data were analyzed with FlowJo software version 10.0.

[6] = system: SupB15 cells; experiment: Real-time cell growth by IncuCyte, SupB15; type: cell-based, human; conditions: 10 µM, 96 h; n = 3
Method: as §1

[7] = system: 697 cells; experiment: Real-time cell growth by IncuCyte, 697; type: cell-based, human; conditions: 10 µM, 96 h; n = 3
Method: as §1

[8] = system: Imatinib-resistant Ph+ ALL primary xenograft cells; experiment: Real-time cell growth by IncuCyte, primary Ph+ ALL xenograft cells; type: cell-based, human; conditions: 10 µM, 6 days; n = 2
Method: Animals showing clinical symptoms of leukemia or with >75% leukemic blasts in blood were sacrificed, and total splenic cells were isolated and frozen for future use.
For Ph^+ ALL cells isolated from the xenografted NSG mice, frozen cells were thawed and cultured in MEM-alpha (Gibco) media supplemented with 20% FBS and 100 units/mL of penicillin/streptomycin for 5–16 h in a 5% CO2 incubator. Next, the cells were overlaid on 10 mL Ficoll-Paque™PLUS (#17144003, Cytiva, Freiburg, Germany) in 50 mL tubes and centrifuged at 400 g without break for 10 min at RT. The cells were collected from the interface of Ficoll and media and washed once with PBS. Viable cells were counted and plated into previously coated 48-well plates at 4.25 × 10^5 cells/well in 250 μL of media with or without the inhibitors. Scanning was conducted every two hours for total of 6 days in phase contrast mode and analyzed using the cell-by-cell analysis module of IncuCyte software version 2020B (Essen Bioscience).

[9] = system: TKO-EV cells (untransformed mouse BM pro-B cells); experiment: Real-time cell growth analysis by IncuCyte, untransformed TKO-EV cells; conditions: 1, 5 and 10 µM, 96 h; n = 3
Method: A flat-bottom 96-well plate was coated with 0.01% poly-L ornithine (#P4957, Sigma-Aldrich, Hamburg, Germany) for 1 h at room temperature (RT). BCR–ABL1, SupB15, and 697 cells were counted as 0.5 × 10^5 cells/well, while TKO-BCR–ABL1 and TKO-EV cells as 1 × 10^5 cells/well, which were labeled with IncuCyte Cytotox Red dye (#4632, Sartorius, Ulm, Germany) as per the manufacturer’s protocol. The cells were plated in 100 μL complete medium. […] Plate was prewarmed at 37 °C for 30 min prior to placing in the IncuCyte chamber. Scanning was conducted every two hours for total of 4 days. Images were acquired using a 20X objective in phase contrast and fluorescence mode at 4 images/well and analyzed using the cell-by-cell analysis module of IncuCyte software version 2020B (Essen Bioscience, Ann Arbor, MI, USA).

Row | Compound | Proliferation of BCR–ABL1 cells (dye dilution) vs DMSO [1] | Growth of normal WT mouse BM-derived B cells [2] | CXCL12-induced ERK1/2 T202/Y204 phosphorylation [3] | Basal JNK phosphorylation vs DMSO [4] | 697 cell survival vs DMSO [5] | SupB15 cell growth vs DMSO [6] | 697 cell growth vs DMSO [7] | Growth of Ph+ ALL xenograft cells vs DMSO [8] | Survival/growth of TKO-EV cells [9]
1 | ILRWSRK * (Pal)-NH2 [JM#170, lipid-conjugated truncated version of EPI-X4, CXCR4 antagonist] | no effect on proliferation | remained inactive against the WT B cells | this elevation was blocked | transiently upregulated basal JNK phosphorylation | no effect on the survival of these cells | significantly reduced SupB15 cell growth | no effect on the 697 cells | significant growth inhibitory effect | 
2 | c1cc(CN2CCCNCCNCCCNCC2)ccc1CN1CCCNCCNCCCNCC1 [AMD3100, AMD3100 octahydrochloride hydrate, reference compound] | significantly reduced the proliferation |  | this elevation was blocked | such upregulation was not observed |  |  |  |  | neither JM#170 nor AMD3100 had any effect
